Measurements from patent US20180148418A1, “AMIDO-SUBSTITUTED CYCLOHEXANE DERIVATIVES” (Bayer Pharma Aktiengesellschaft, priority 2015, published 2018).

Tests used:
[1] = test system: HEK293 cells cotransfected with the FOP control vector; test: HEK293 FOP assay (control reporter with non-functional TCF elements); format: cell-based; settings: Homo sapiens, 16 hours
In short: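 Compound series from 50 μM down to 15 nM, prediluted in DMSO then 50-fold into CAFTY buffer (pH 7.4, 2 mM Ca2+, 0.01% BSA), tested alongside TOP cells on a Geneticin-selected HEK293 FOP line whose TCF elements are replaced by a random sequence; recombinant human Wnt-3a applied at 2500-5 ng/ml.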

TNKS1 = molecular target: T1, TNKS1 (Homo sapiens, UniProt O95271); test: TNKS1 Assay B (auto-parsylation, [3H]-NAD+ SPA); format: biochemical; settings: 6 nM TNKS1, auto-parsylation, over night at room temperature
T1 construct: purchased BPS Bioscience, San Diego, USA 80579 (TNKS1 Histone Ribosylation Assay Kit)
T1 sequence (O95271 1-1327): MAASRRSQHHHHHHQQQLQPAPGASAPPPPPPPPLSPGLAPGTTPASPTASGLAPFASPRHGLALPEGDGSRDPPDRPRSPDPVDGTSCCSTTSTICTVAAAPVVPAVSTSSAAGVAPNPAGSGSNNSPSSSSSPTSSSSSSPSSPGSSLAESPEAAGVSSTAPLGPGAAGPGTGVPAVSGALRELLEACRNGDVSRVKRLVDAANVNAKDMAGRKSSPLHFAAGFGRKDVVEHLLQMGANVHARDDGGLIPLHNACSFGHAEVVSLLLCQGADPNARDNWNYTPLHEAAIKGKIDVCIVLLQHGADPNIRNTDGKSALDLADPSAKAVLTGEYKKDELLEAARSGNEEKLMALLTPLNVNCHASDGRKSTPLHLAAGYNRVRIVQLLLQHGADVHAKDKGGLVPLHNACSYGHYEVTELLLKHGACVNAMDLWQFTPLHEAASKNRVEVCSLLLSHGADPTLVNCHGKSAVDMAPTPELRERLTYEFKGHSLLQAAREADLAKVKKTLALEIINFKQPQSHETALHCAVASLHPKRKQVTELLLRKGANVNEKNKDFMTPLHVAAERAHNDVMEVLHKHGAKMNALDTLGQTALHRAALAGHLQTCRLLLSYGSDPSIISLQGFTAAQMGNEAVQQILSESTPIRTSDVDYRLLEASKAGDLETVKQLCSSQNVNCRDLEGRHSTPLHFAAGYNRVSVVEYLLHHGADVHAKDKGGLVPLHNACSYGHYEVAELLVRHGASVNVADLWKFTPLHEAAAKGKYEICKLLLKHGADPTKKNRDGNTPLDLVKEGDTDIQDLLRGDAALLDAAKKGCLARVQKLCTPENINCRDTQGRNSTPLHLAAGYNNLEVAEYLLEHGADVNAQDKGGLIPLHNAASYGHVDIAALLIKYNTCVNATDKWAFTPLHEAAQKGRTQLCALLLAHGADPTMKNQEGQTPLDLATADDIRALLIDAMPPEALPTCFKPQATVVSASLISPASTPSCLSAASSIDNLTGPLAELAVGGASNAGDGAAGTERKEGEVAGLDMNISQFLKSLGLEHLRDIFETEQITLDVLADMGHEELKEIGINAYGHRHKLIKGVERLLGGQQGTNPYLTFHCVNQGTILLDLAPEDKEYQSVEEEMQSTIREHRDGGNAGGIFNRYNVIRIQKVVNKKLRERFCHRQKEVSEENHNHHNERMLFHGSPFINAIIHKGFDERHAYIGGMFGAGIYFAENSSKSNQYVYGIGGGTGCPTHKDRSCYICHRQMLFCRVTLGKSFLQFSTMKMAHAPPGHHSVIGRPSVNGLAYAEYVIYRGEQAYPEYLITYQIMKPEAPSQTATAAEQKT

SMILES | IC50 [1] | IC50 (TNKS1)
CC(=O)c1cnc2c(C(=O)N[C@H]3CC[C@H](C(=O)Nc4ccc(F)cc4Cl)CC3)cnn2c1C [Example 46, 6-acetyl-N-{trans-4-[(2-chloro-4-fluorophenyl)carbamoyl]cyclohexyl}-7-methylpyrazolo[1,5-a]pyrimidine-3-carboxamide] | ≥ 50000 nM | 65 nM
O=C(N[C@H]1CC[C@H](C(=O)Nc2ccc(F)cc2Cl)CC1)c1cnc2ccc(Cl)nn12 [Example 47, 6-chloro-N-{trans-4-[(2-chloro-4-fluorophenyl)carbamoyl]cyclohexyl}imidazo[1,2-b]pyridazine-3-carboxamide] | 16000 nM | 530 nM
O=C(N[C@H]1CC[C@H](C(=O)Nc2ccc(F)cc2Cl)CC1)c1cnc2ccc(N3CCOCC3)nn12 [Example 48, N-{trans-4-[(2-chloro-4-fluorophenyl)carbamoyl]cyclohexyl}-6-(morpholin-4-yl)imidazo[1,2-b]pyridazine-3-carboxamide] | 14000 nM | 410 nM
CN1CCN(c2ccc3ncc(C(=O)N[C@H]4CC[C@H](C(=O)Nc5ccc(F)cc5Cl)CC4)n3n2)CC1 [Example 49, N-{trans-4-[(2-chloro-4-fluorophenyl)carbamoyl]cyclohexyl}-6-(4-methylpiperazin-1-yl)imidazo[1,2-b]pyridazine-3-carboxamide] | 32000 nM | 400 nM
COc1ccc2ncc(C(=O)N[C@H]3CC[C@H](C(=O)Nc4ccc(F)cc4Cl)CC3)n2n1 [Example 50, N-{trans-4-[(2-chloro-4-fluorophenyl)carbamoyl]cyclohexyl}-6-methoxyimidazo[1,2-b]pyridazine-3-carboxamide] | ≥ 50000 nM | 110 nM
O=C(N[C@H]1CC[C@H](C(=O)Nc2ccc(F)cc2Cl)CC1)c1cnc2ccc(N3CCCC3)nn12 [Example 51, N-{trans-4-[(2-chloro-4-fluorophenyl)carbamoyl]cyclohexyl}-6-(pyrrolidin-1-yl)imidazo[1,2-b]pyridazine-3-carboxamide] | ≥ 50000 nM | 83 nM
CN(C)c1ccc2ncc(C(=O)N[C@H]3CC[C@H](C(=O)Nc4ccc(F)cc4Cl)CC3)n2n1 [Example 52, N-{trans-4-[(2-chloro-4-fluorophenyl)carbamoyl]cyclohexyl}-6-(dimethylamino)imidazo[1,2-b]pyridazine-3-carboxamide] | 40000 nM | 22 nM
CNc1ccc2ncc(C(=O)N[C@H]3CC[C@H](C(=O)Nc4ccc(F)cc4Cl)CC3)n2n1 [Example 53, N-{trans-4-[(2-chloro-4-fluorophenyl)carbamoyl]cyclohexyl}-6-(methylamino)imidazo[1,2-b]pyridazine-3-carboxamide] | ≥ 50000 nM | 150 nM
Cc1c(C(C)O)cnc2c(C(=O)N[C@H]3CC[C@H](C(=O)Nc4ccc(F)cc4Cl)CC3)cnn12 (stereo partly drawn) [Example 58, N-{trans-4-[(2-chloro-4-fluorophenyl)carbamoyl]cyclohexyl}-6-(1-hydroxyethyl)-7-methylpyrazolo[1,5-a]pyrimidine-3-carboxamide] | ≥ 50000 nM | 740 nM
Nc1nn2cccnc2c1C(=O)N[C@H]1CC[C@H](C(=O)Nc2ccc(F)cc2Cl)CC1 [Example 59, 2-amino-N-{trans-4-[(2-chloro-4-fluorophenyl)carbamoyl]cyclohexyl}pyrazolo[1,5-a]pyrimidine-3-carboxamide] | ≥ 50000 nM | 950 nM
Cc1cc(C(C)(C)C)n2ncc(C(=O)N[C@H]3CC[C@H](C(=O)Nc4ccc(F)cc4Cl)CC3)c2n1 [Example 60, 7-tert-butyl-N-{trans-4-[(2-chloro-4-fluorophenyl)carbamoyl]cyclohexyl}-5-methylpyrazolo[1,5-a]pyrimidine-3-carboxamide] | 24000 nM | > 10000 nM
Cc1cnc2c(C(=O)N[C@H]3CC[C@H](C(=O)Nc4ccc(F)cc4Cl)CC3)cnn2c1 [Example 61, N-{trans-4-[(2-chloro-4-fluorophenyl)carbamoyl]cyclohexyl}-6-methylpyrazolo[1,5-a]pyrimidine-3-carboxamide] | ≥ 50000 nM | 120 nM
Cc1cc(C2CC2)nc2c(C(=O)N[C@H]3CC[C@H](C(=O)Nc4ccc(F)cc4Cl)CC3)cnn12 [Example 62, N-{trans-4-[(2-chloro-4-fluorophenyl)carbamoyl]cyclohexyl}-5-cyclopropyl-7-methylpyrazolo[1,5-a]pyrimidine-3-carboxamide] | ≥ 50000 nM | > 10000 nM
CNC(=O)c1nc[nH]c1C(=O)N[C@H]1CC[C@H](C(=O)Nc2cc(C)c(F)cc2Cl)CC1 [Example 63, N^5-{trans-4-[(2-chloro-4-fluoro-5-methylphenyl)carbamoyl]cyclohexyl}-N^4-methyl-1H-imidazole-4,5-dicarboxamide] | ≥ 50000 nM | 57 nM
Cc1cc(NC(=O)[C@H]2CC[C@H](NC(=O)c3[nH]cnc3C(=O)NCC3CCCO3)CC2)c(Cl)cc1F (stereo partly drawn) [Example 64, N^5-{trans-4-[(2-chloro-4-fluoro-5-methylphenyl)carbamoyl]cyclohexyl}-N^4-(tetrahydrofuran-2-ylmethyl)-1H-imidazole-4,5-dicarboxamide] | 27000 nM | 59 nM
COCC(C)NC(=O)c1nc[nH]c1C(=O)N[C@H]1CC[C@H](C(=O)Nc2c(F)cc(F)cc2Cl)CC1 (stereo partly drawn) [Example 65, N^5-{trans-4-[(2-chloro-4,6-difluorophenyl)carbamoyl]cyclohexyl}-N^4-(1-methoxypropan-2-yl)-1H-imidazole-4,5-dicarboxamide] | ≥ 50000 nM | 170 nM
COC[C@H](C)NC(=O)c1nc[nH]c1C(=O)N[C@H]1CC[C@H](C(=O)Nc2c(F)cc(F)cc2Cl)CC1 [Example 66, N^5-{trans-4-[(2-chloro-4,6-difluorophenyl)carbamoyl]cyclohexyl}-N^4-[(2S)-1-methoxypropan-2-yl]-1H-imidazole-4,5-dicarboxamide] | ≥ 50000 nM | 310 nM
COC[C@@H](C)NC(=O)c1nc[nH]c1C(=O)N[C@H]1CC[C@H](C(=O)Nc2c(F)cc(F)cc2Cl)CC1 [Example 67, N^5-{trans-4-[(2-chloro-4,6-difluorophenyl)carbamoyl]cyclohexyl}-N^4-[(2R)-1-methoxypropan-2-yl]-1H-imidazole-4,5-dicarboxamide] | ≥ 50000 nM | 250 nM
COC(C)CNC(=O)c1nc[nH]c1C(=O)N[C@H]1CC[C@H](C(=O)Nc2c(F)cc(F)cc2Cl)CC1 (stereo partly drawn) [Example 68, N^5-{trans-4-[(2-chloro-4,6-difluorophenyl)carbamoyl]cyclohexyl}-N^4-(2-methoxypropyl)-1H-imidazole-4,5-dicarboxamide] | 33000 nM | 60 nM
O=C(NCC1CCCO1)c1nc[nH]c1C(=O)N[C@H]1CC[C@H](C(=O)Nc2c(F)cc(F)cc2Cl)CC1 (stereo partly drawn) [Example 69, N^5-{trans-4-[(2-chloro-4,6-difluorophenyl)carbamoyl]cyclohexyl}-N^4-(tetrahydrofuran-2-ylmethyl)-1H-imidazole-4,5-dicarboxamide] | ≥ 50000 nM | 57 nM
O=C(NC[C@H]1CCCO1)c1nc[nH]c1C(=O)N[C@H]1CC[C@H](C(=O)Nc2c(F)cc(F)cc2Cl)CC1 [Example 70, N^5-{trans-4-[(2-chloro-4,6-difluorophenyl)carbamoyl]cyclohexyl}-N^4-[(2R)-tetrahydrofuran-2-ylmethyl]-1H-imidazole-4,5-dicarboxamide] | 29000 nM | 78 nM
